Source: ChEMBL document CHEMBL1128941, “Peptidomimetic inhibitors of herpes virus ribonucleotide reductase. Correlation between herpes simplex and varicella zoster virus” (Bioorg Med Chem Lett, 1996)
Starred links: 1 amine or outer side, 2 acyl side, 3 side chain; linkers in the order of their positions; H or OH if unused. Non-standard residues stand in square brackets, D forms with d. Residues, ends and D or L forms follow the SMILES beside them. *: point of attachment. Asp(3,3-(CH2)4) = N[C@H](C(=O)O)C1(C(=O)O)CCCC1; Dibenzylacetyl = O=C(C(Cc1ccccc1)Cc1ccccc1)*; Hydrocinnamoyl = O=C(CCc1ccccc1)*; tBuAla = CC(C)(C)C[C@H](N)C(=O)O; Tle = CC(C)(C)[C@H](N)C(=O)O; NMeV = CN[C@H](C(=O)O)C(C)C; NH(3-pentyl) = CCC(CC)N*; Pyrrolidide = C1CCN(*)C1; CO = O=C([*:1])[*:2]; X1 = CCC(CC)OC(=O)*; X2 = CCC(CC)CC(=O)*

What was measured:
[1] = Inhibitory potency against Herpes Simplex virus ribonucleotide reductase; set-up: species or system Herpes simplex virus (type 1 / strain 17)
[2] = Inhibitory potency against Varicella zoster virus ribonucleotide reductase

Molecule	IC50 [1]	IC50 [2]
CC(C)C[C@H](NC(=O)[C@H](CC(=O)O)NC(=O)[C@H](CC(=O)N1CCCC1)NC(=O)[C@@H](NC(=O)[C@@H](NC(=O)CCc1ccccc1)C(C)C)C(C)C)C(=O)O (Hydrocinnamoyl-VVD(Pyrrolidide)DL-OH)	24 nM	588 nM
CCC(CC)OC(=O)N[C@H](C(=O)N[C@@H](CC(=O)N1CCCC1)C(=O)N[C@@H](CC(=O)O)C(=O)N[C@@H](CC(C)C)C(=O)O)C(C)(C)C (X1-[Tle]D(Pyrrolidide)DL-OH)	635 nM	7000 nM
CC(C)C[C@H](NC(=O)[C@H](CC(=O)O)NC(=O)[C@H](CC(N)=O)NC(=O)[C@@H](NC(=O)[C@@H](NC(=O)CCc1ccccc1)C(C)C)C(C)C)C(=O)O	4000 nM	15000 nM
CC(C)C[C@H](NC(=O)[C@H](CC(=O)O)NC(=O)[C@H](CC(=O)N1CCCC1)NC(=O)[C@@H](NC(=O)[C@H](C(C)C)N(C)C(=O)CCc1ccccc1)C(C)C)C(=O)O (Hydrocinnamoyl-[NMeV]VD(Pyrrolidide)DL-OH)	7.5 nM	210 nM
CC(C)C[C@H](NC(=O)[C@H](CC(=O)O)NC(=O)[C@H](CC(N)=O)NC(=O)[C@@H](NC(=O)[C@@H](NC(=O)[C@H](C)NC(=O)CNC(=O)[C@H](C)NC(=O)[C@@H](N)Cc1ccc(O)cc1)C(C)C)C(C)C)C(=O)O	25000 nM	
CCC(CC)CC(=O)N[C@H](C(=O)N[C@@H](CC(=O)N1CCCC1)C(=O)N[C@@H](CC(=O)O)C(=O)N[C@@H](CC(C)C)C(=O)O)C(C)(C)C (X2-[Tle]D(Pyrrolidide)DL-OH)	140 nM	
H-YAGTVINDL-OH	8000 nM	
CC(C)[C@H](NC(=O)CCc1ccccc1)C(=O)N[C@H](C(=O)N[C@@H](CC(=O)N1CCCC1)C(=O)N[C@@H](CC(=O)O)C(=O)N[C@@H](CC(C)(C)C)C(=O)O)C(C)C (Hydrocinnamoyl-VVD(Pyrrolidide)D[tBuAla]-OH)	5 nM	9800 nM

Further molecules by falling IC50 [1], results first:

IC50 [1]	IC50 [2]	Molecule
5 nM	3500 nM	CCC(CC)NC(=O)C[C@H](C(=O)N[C@@H](CC(=O)N1CCCC1)C(=O)N[C@@H](CC(=O)O)C(=O)N[C@@H](CC(C)C)C(=O)O)C(C)(C)C
4 nM	123 nM	CC(C)C[C@H](NC(=O)[C@H](CC(=O)O)NC(=O)[C@H](CC(=O)N1CCCC1)NC(=O)[C@@H](NC(=O)[C@@H](NC(=O)CCc1ccccc1)C(C)C)C(C)(C)C)C(=O)O (Hydrocinnamoyl-V[Tle]D(Pyrrolidide)DL-OH)
3 nM	925 nM	CCC(CC)NC(=O)N[C@H](C(=O)N[C@@H](CC(=O)N1CCCC1)C(=O)N[C@@H](CC(=O)O)C(=O)N[C@@H](CC(C)C)C(=O)O)C(C)(C)C ({NH(3-pentyl)-CO}-[Tle]D(Pyrrolidide)DL-OH)
1 nM	37 nM	CC(C)C[C@H](NC(=O)[C@@H](NC(=O)[C@H](CC(=O)N1CCCC1)NC(=O)[C@@H](NC(=O)[C@@H](NC(=O)CCc1ccccc1)C(C)C)C(C)C)C1(C(=O)O)CCCC1)C(=O)O (Hydrocinnamoyl-VVD(Pyrrolidide)[Asp(3,3-(CH2)4)]L-OH)
0.7 nM	22 nM	CC(C)C[C@H](NC(=O)[C@H](CC(=O)O)NC(=O)[C@H](CC(=O)N1CCCC1)NC(=O)[C@@H](NC(=O)[C@@H](NC(=O)C(Cc1ccccc1)Cc1ccccc1)C(C)C)C(C)C)C(=O)O (Dibenzylacetyl-VVD(Pyrrolidide)DL-OH)
